Measurements taken from patent publication US5358936A, “Anionic furanose derivatives, methods of making and using the same” (Gordon; Paul, priority 1991, dated 1994).
Where “and” joins values, the source holds several entries; their conditions need not be identical. Identical values can stand only once. Entries after “also recorded” stand apart in the source; their conditions may differ. Counter-ions that a name gives are not always drawn.

How the values were obtained:
peritoneal neutrophils = experiment: In vitro neutrophil chemotaxis toward zymosan-activated rat serum (Example 24); format: cell-based, mouse; conditions: for Percent Inhibition of chemotaxis: tripotassium salt
Experimental: In vitro neutrophil chemotaxis studies were carried out by standard methods, as follows:
Mice were injected with complete Freund's adjuvant (CFA) and peritoneal cells, principally neutrophjls (>90 percent), were reproved from the mice 24 hours thereafter. Blind-well chemotactic chambers (Nucleopore Corp., Pleasanton, Calif.) were utilized.
Medium (RPMI 1640 plus 10 percent fetal calf serum) or medium plus 20 percent zymosan-activated rat serum (ZAS) was added to the lower compartment of each chamber. A nucleopore filter (8 μm pore size) was placed between compartments and 1×10^5 peritoneal neutrophils (above) suspended in medium were placed in the upper compartment. Chambers were incubated for six hours, after which time the filters were removed and stained with Giemsa stain. The number of cells on the lower surface of the filter was counted under a microscope. Treatment groups were assayed in duplicate.
The studies were carried out more specifically as follows:
Zymosan (Sigma Chemical Co., St. Louis, Mo.) was mixed with rat serum for one hour at 37° C. at 1 milligram (mg)/ml. The resulting chemoattractant composition was filtered, aliquotted and stored frozen at -70° C. prior to use.
The above chemoattractant composition was used as a 20 percent v/v solution in medium.
The chemotaxis chambers were arranged as follows:
The chambers were incubated at 37° C. for six hours, after which the chambers were dismantled, and the filters removed and treated as follows:
a) The filters were immersed in Giemsa stain diluted 1:50 for 30-45 minutes.
b) The stained filters were rinsed gently in distilled water for 3-5 minutes.
c) The stained, rinsed filters were air dried without blotting.
Several compounds described herein and control compounds ("drug", above) were examined at various concentrations, in duplicate. The molar concentration of a drug that inhibited the observed chemotaxis by 50 percent, defined as the ID50 value, was determined as shown below.

platelet aggregation = experiment: Mouse tail bleeding time (Example 31 B); format: in vivo
Experimental: A study of mouse tail bleeding time, which is an in vivo model of platelet aggregation and thrombosis was also conducted. In this widely employed model, bleeding was induced by a standardized transection of the tail tip and subsequent bleeding time was determined after vertical immersion of the tails in isotonic saline at 37° C. for thirty seconds.
Two compounds of the invention, Compound III and Compound VIII, were assessed as compared with aspirin, in another study of mouse tail bleeding time. In this study, the mice were housed in a standard animal room rather than in a noisy small animal isolator. Also, all three drugs were administered by an intraperitoneal route, rather than a subcutaneous route for Compound III and an intraperitoneal route for aspirin.

rat paw = experiment: Rat paw edema provoked by neutral proteases (Example 32); format: in vivo; conditions: two hours; SOD IV; Compound III IP and IV
Experimental: Both tryptic activity and collagenase activity are components of the tissue-injuring neutral proteinase activities secreted by neutrophils. Collagenase activity has also been associated with injury to cartilage; and, in another context, with the micro-injury to blood vessels that permits the extravasation and metastasis of, and by, tumor cells.
The effects of Compound III on rat and mouse paw edema as provoked by injection of these enzymes were evaluated. SOD injected IV and Compound III injected IP and IV at zero time, (as in Example 25), inhibited edema at two hours by from 33-40 percent, in both species. […] Both drug effects were significant by t test, SOD at P<0.05 and Compound III at P<0.01.

gastric mucosal ulcers = experiment: Healing of established gastric ulcers induced by acetic acid (Example 34); format: in vivo, rat; conditions: rat, in vivo; tripotassium salt
From the text: To evaluate drug effects on peptic ulcer healing, gastric mucosal ulcers were produced in rats, after a two day fast, by a modification of the method of Konturek et al., Am. J. Med., Vol. 86, 6A, 32 (1989). Briefly, to produce a mucosal ulcer, Konturek et al. applied 100 percent acetic acid for twenty seconds to the stomach serosa through a small cylindrical mold, 4.2 mm in diameter. The aim here was to make ulceration more severe than was achieved by the Konturek group so that spontaneous healing would not be as pronounced as they found in the controls, over an experimental period of seven days.
All drugs studied were suspended in 0.25 percent (by weight) aqueous methylcellulose solution as the vehicle or diluent, which also served as the placebo given to the controls. Treatments were given once daily by oral gavage, in one milliliter of vehicle. The treatment groups were: Control; Sucralfate at 200 mg/kg; and Compound III:Al at 200 mg/kg.
At the end of the treatment period, stomachs were removed, ulcer diameters were measured, and determination was made of the presence or absence of perforation.
A second study was carried out in which ulcer evolution was permitted to take place over five additional days, in the absence and presence of treatment with Sucralfate.
A third study was begun one day following the start of study 2, in which ulcer evolution was allowed to take place over five additional days, in the absence and presence of treatment with Compound III:Al.
In another study, after ulcer induction as above, a different dosage protocol was employed at 24 hours to evaluate the interaction of Compound III and orally administered sucralfate on ulcer healing. […] Here, daily drug doses of the following were used: (a) sucralfate at 200 mg/kg, alone and (b) in combination with 80 mg/kg Compound III given by mouth at -45 minutes, and, in a third group, (c) in combination with 10 mg/kg Compound III given IV also at -45 minutes. In this interaction study, drug treatment was continued for three and not five days, as was the case for the above studies, followed by passage of two additional non-treatment days before sacrifice of animals for evaluation of stomach ulcer area and perforation.
Data from all ulcer-healing studies employing a drug dosage of 200 mg/kg and the same ulcerogenesis protocol were pooled as to the frequency of gastric perforation observed on day five, not shown separately, with the day six perforation data shown above.

## CC1(C)O[C@H]2O[C@H]([C@@H](COS(=O)(=O)O)OS(=O)(=O)O)[C@H](OS(=O)(=O)O)[C@H]2O1 [Compound III, 1,2-O-(2-Propylidene)-3,5,6-tri-O-sulfo-α-D-glucofuranose, tripotassium salt]
Peritoneal neutrophils
  times as potent as ibuprofen and prednisone in chemotaxis inhibition: 100-1000 times
Peritoneal neutrophils; Mus musculus, Neutrophil, 6 h, 20 percent zymosan-activated rat serum, six hours, 37° C., read-out: ID50 (molar concentration that inhibited chemotaxis by 50 percent)
  IC50: 0.2 µM
Peritoneal neutrophils; Mus musculus, Neutrophil, dose 0.01 μg/ml, read-out: Percent Inhibition of chemotaxis
  inhibition at 0.01 µg/mL: 1.5%
Peritoneal neutrophils; Mus musculus, Neutrophil, dose 100.0 μg/ml, read-out: Percent Inhibition of chemotaxis
  inhibition at 100 µg/mL: 68%
Peritoneal neutrophils; Mus musculus, Neutrophil, dose 200.0 μg/ml, read-out: Percent Inhibition of chemotaxis
  inhibition at 200 µg/mL: 60%
Peritoneal neutrophils; dose 1.0 μg/ml
  Percent Inhibition of chemotaxis: 69.0% and 65.0% and 90.0% and 88.5% and 77.0% and 63.5% and 70.0%
Peritoneal neutrophils; dose 10.0 μg/ml
  Percent Inhibition of chemotaxis: 87.0% and 76.0% and 92.5% and 97.5% and 74.5%
Peritoneal neutrophils; dose 100.0 μg/ml
  Percent Inhibition of chemotaxis: 80.5%
Peritoneal neutrophils; in vitro
  relative activity in inhibiting neutrophil chemotaxis, in words: more active than any of the other assayed compounds
Platelet aggregation; 50 mg/kg and 150 mg/kg subcutaneously, P<0.05
  effect on mouse tail bleeding time, in words: more than doubled bleeding time
Platelet aggregation; 100 mg/kg intraperitoneal
  % Increase in bleeding time: 276%
Platelet aggregation; 100 mg/kg intraperitoneal, control 37.0 ± 5.25
  Mouse Tail Bleeding Time: 139.0 ± 22.51 s
Platelet aggregation; first study: aspirin 75 mg/kg IP, Compound III s.c. or oral, second study: all IP 100 mg/kg, tripotassium salt
  potency relative to aspirin in prolonging mouse tail bleeding time / suppressing platelet aggregation: equipotent with aspirin (75 mg/kg IP); also recorded: about equipotent with aspirin; also recorded: more effective than aspirin; also recorded: more potent than aspirin in the suppression of platelet aggregation
Rat paw
  inhibition of edema: 33-40%
Gastric mucosal ulcers
  effect on established ulcers, in words: used alone did not enhance the healing process; also recorded: able to prevent the perforation of established ulcers
